In PubChem BioAssay AID1845209 (Molecular Pharmacology Branch, DTP, NCI, 2023):

System: NCI-H211 tumor spheroids, viability percent test/control
Test: Anticancer human tumor NCI-H211 cell line growth inhibition;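 note: spheroids exposed to agents for seven days before readout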
Settings: spheroids with HUVEC and MSC; for IC50: curve of first compound; for viability, T/C: stronger effect = lower value
From the text: Multicellular complex tumor spheroid response to DNA repair inhibitors in combination with DNA-damaging drugs
This study explores the anticancer activities of DNA-damaging drugs and inhibitors of DNA damage repair, both as single agents and in combinations. Complex tumor spheroids comprised of malignant cells, endothelial cells and mesenchymal stem cells served as an in vitro model for human solid tumors. This model system incorporates physiologically relevant features and patient-derived or established malignant cell lines with clinically relevant genetic alterations from many tumor types. Twenty-six patient-derived or established malignant cell lines were evaluated representing sarcoma, melanoma, small cell lung cancer (SCLC), non-small cell lung cancer (NSCLC), as well as bladder, ovarian and pancreatic cancers. The concentration ranges selected for each drug and investigational agent were based upon clinically achievable concentrations if the clinical Cmax of the agent was known.
Compounds. The drugs and compounds olaparib (NSC753686), talazoparib (NSC767125), berzosertib (NSC777718), elimusertib (NSC800525), nedisertib (NSC802822), VX-984 (NSC792969), AZD-1390 (NSC803789), temozolomide (NSC362856), topotecan (NSC609699), trabectedin (NSC813783), staurosporine (NSC755774), and gemcitabine (NSC613327) were obtained from the National Cancer Institute (NCI) Developmental Therapeutics Program Chemical Repository. The FDA-approved anticancer drug set is available from the Developmental Therapeutics Program at https://dtp.cancer.gov/organization/dscb/obtaining/available_plates.htm. […] The stock solutions were prepared in dimethyl sulfoxide (DMSO, Sigma-Aldrich, St. Louis, MO, cat. D2650) at 400-fold the tested concentration and stored at -70 degrees C. Prior to their use, the stock solutions were diluted in fresh medium and the final DMSO concentration in the assay was 0.25% (v/v). All drugs and investigational agents were tested over a range starting from a high concentration at or near the clinical Cmax and decreasing in half-log increments. If the clinical Cmax for an agent had not been determined, the highest concentration tested was 10 microM.
Cell Lines. The patient-derived cancer cell (PDC) lines: 156681-154-R-J1-PDC, 283228-195-R-J1-PDC, 287954-098-R-J1-PDC, 292921-168-R-J2-PDC, 349418-098-R-PDC, 425362-245-T-J1-PDC, 556581-035-R-J1-PDC, and BL0293-F563-PDC were received from the NCI Patient-Derived Models Repository (PDMR, https://pdmr.cancer.gov). The established cell lines HS-SY-2 (RRID:CVCL_8719), MPNST, and SYO-1 (RRID:CVCL_7146) were obtained from the Sloan Kettering Institute. The alveolar soft parts sarcoma cell line ASPS-1 (RRID:CVCL_S738) was established at the NCI and grown from internal seed stocks. The following established cell lines were purchased from the American Type Culture Collection (ATCC, Manassas, VA): G-401 (ATCC, cat. CRL-1441, RRID:CVCL_0270), SW982 (ATCC, cat. HTB-93, RRID:CVCL_1734), VA-ES-BJ (ATCC, cat. CRL-2138, RRID:CVCL_1785), NCI-H719 (ATCC, cat. CRL-5837, RRID:CVCL_1582), NCI-H196 (ATCC, cat. CRL-5823, RRID:CVCL_1509), NCI-H841 (ATCC, cat. CRL-5845, RRID:CVCL_1595), NCI-H1618 (ATCC, cat. CRL-5879, RRID:CVCL_1480), NCI-H1876 (ATCC, cat. CRL-5902, RRID:CVCL_1503), DMS 114 (ATCC, cat. CRL-2066; RRID:CVCL_1174), NCI-H211 (ATCC, cat. CRL-5824; RRID:CVCL_1529), and SW 1271 (ATCC, cat. CRL-2177, RRID:CVCL_1716). The small cell lung cancer cell line COR-L88 was purchased from Sigma-Aldrich (cat. 92031917-1VL, RRID:CVCL_1141). The non-small cell lung cancer cell lines NCI-H226 (RRID:CVCL_1544) and NCI-H322M (RRID:CVCL_1557) were established at the NCI and grown from internal seed stocks. Pooled donor human umbilical vein endothelial cells (HUVEC, Lonza, cat. CC-2519) and human mesenchymal stem cells (hMSC, Lonza, cat. PT-2501) were purchased from Lonza (Walkersville, MD).
Cell Culture. All cells were maintained in an incubator at 37 degrees C and 5% CO2 with 95% humidity. […]

## CC1COCCN1c1cc(-c2ccnn2C)c2ccnc(-c3ccn[nH]3)c2n1 (stereo not given) + COc1cc2c(cc1O)CCNC21CSC2c3c(OC(C)=O)c(C)c4c(c3C(COC1=O)N1C(O)C3Cc5cc(C)c(OC)c(O)c5C(C21)N3C)OCO4
Second compound 30 pM
  IC50: < 31.6 nM
Second compound 94.9 pM
  IC50: < 31.6 nM
Second compound 0.0003 µM
  IC50: < 31.6 nM
Second compound 0.000949 µM
  IC50: < 31.6 nM
Second compound 0.003 µM
  IC50: < 31.6 nM
Second compound 30 pM, first compound 0.0316 µM
  viability, T/C: 0.76%
Second compound 30 pM, first compound 0.1 µM
  viability, T/C: 0.64%
Second compound 30 pM, first compound 0.316 µM
  viability, T/C: 0.52%
Second compound 30 pM, first compound 1 µM
  viability, T/C: 0.4%
Second compound 30 pM, first compound 3.16 µM
  viability, T/C: 0.43%
Second compound 30 pM, first compound 10 µM
  viability, T/C: 0.49%
Second compound 94.9 pM, first compound 0.0316 µM
  viability, T/C: 0.75%
Second compound 94.9 pM, first compound 0.1 µM
  viability, T/C: 0.74%
Second compound 94.9 pM, first compound 0.316 µM
  viability, T/C: 0.62%
Second compound 94.9 pM, first compound 1 µM
  viability, T/C: 0.38%
Second compound 94.9 pM, first compound 3.16 µM
  viability, T/C: 0.35%
Second compound 94.9 pM, first compound 10 µM
  viability, T/C: 0.42%
Second compound 0.0003 µM, first compound 0.0316 µM
  viability, T/C: 0.75%
Second compound 0.0003 µM, first compound 0.1 µM
  viability, T/C: 0.89%
Second compound 0.0003 µM, first compound 0.316 µM
  viability, T/C: 0.57%
Second compound 0.0003 µM, first compound 1 µM
  viability, T/C: 0.78%
Second compound 0.0003 µM, first compound 3.16 µM
  viability, T/C: 0.3%
Second compound 0.0003 µM, first compound 10 µM
  viability, T/C: 0.36%
Second compound 0.000949 µM, first compound 0.0316 µM
  viability, T/C: 0.61%
Second compound 0.000949 µM, first compound 0.1 µM
  viability, T/C: 0.63%
Second compound 0.000949 µM, first compound 0.316 µM
  viability, T/C: 0.48%
Second compound 0.000949 µM, first compound 1 µM
  viability, T/C: 0.81%
Second compound 0.000949 µM, first compound 3.16 µM
  viability, T/C: 0.36%
Second compound 0.000949 µM, first compound 10 µM
  viability, T/C: 0.71%
Second compound 0.003 µM, first compound 0.0316 µM
  viability, T/C: 0.1%
Second compound 0.003 µM, first compound 0.1 µM
  viability, T/C: 0.1%
Second compound 0.003 µM, first compound 0.316 µM
  viability, T/C: 0.31%
Second compound 0.003 µM, first compound 1 µM
  viability, T/C: 0.1%
Second compound 0.003 µM, first compound 3.16 µM
  viability, T/C: 0.46%
Second compound 0.003 µM, first compound 10 µM
  viability, T/C: 0.54%
